Columns and labels:
human PPAR α = biological target: T1, human PPAR α (Homo sapiens, UniProt Q07869); experiment: In vitro PPAR alpha transactivation assay (GAL4-DBD-PPAR-LBD luciferase reporter in HEK293 cells); format: cell-based; details: for EC50: HEK293 cells, 24 h with compound, five concentrations 0.01 to 30 μM, means of at least three experiments, read-out: In vitro activation PPAR α EC50; for In vitro activation PPAR α % max: fold activation relative to maximum activation obtained with Wy14643 (approx. 20 fold corresponded to 100%)
T1 construct: PPARα: aa 167-C-terminus; PPARγ: aa 165-C-terminus; expressed in transfected cells; host or cells: HEK293
T1 sequence (Q07869 167-468 limits assumed): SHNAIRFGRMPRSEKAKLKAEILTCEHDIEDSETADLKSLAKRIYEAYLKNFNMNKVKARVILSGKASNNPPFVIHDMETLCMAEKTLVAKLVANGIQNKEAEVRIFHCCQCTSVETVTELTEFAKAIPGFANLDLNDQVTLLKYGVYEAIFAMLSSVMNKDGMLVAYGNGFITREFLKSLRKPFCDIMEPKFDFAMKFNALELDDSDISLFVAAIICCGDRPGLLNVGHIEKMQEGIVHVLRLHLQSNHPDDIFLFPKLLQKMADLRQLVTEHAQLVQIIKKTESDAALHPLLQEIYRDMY
Excerpt: (§1) The PPAR gene transcription activation assays were based on transient transfection into human HEK293 cells of two plasmids encoding a chimeric test protein and a reporter protein respectively. The chimeric test protein was a fusion of the DNA binding domain (DBD) from the yeast GAL4 transcription factor to the ligand binding domain (LBD) of the human PPAR proteins. The PPAR LBD harbored in addition to the ligand binding pocket also the native activation domain (activating function 2=AF2) allowing the fusion protein to function as a PPAR ligand dependent transcription factor. The GAL4 DBD will force the fusion protein to bind only to Gal4 enhancers (of which none existed in HEK293 cells). The reporter plasmid contained a Gal4 enhancer driving the expression of the firefly luciferase protein. After transfection, HEK293 cells expressed the GAL4-DBD-PPAR-LBD fusion protein. The fusion protein will in turn bind to the Gal4 enhancer controlling the luciferase expression, and do nothing in the absence of ligand. Upon addition to the cells of a PPAR ligand, luciferase protein will be produced in amounts corresponding to the activation of the PPAR protein. The amount of luciferase protein is measured by light emission after addition of the appropriate substrate.
(§2) Cell culture and transfection: HEK293 cells were grown in DMEM+10% FCS. Cells were seeded in 96-well plates the day before transfection to give a confluency of 50–80% at transfection. A total of 0,8 μg DNA containing 0,64 μg pM1α/γLBD, 0,1 μg pCMVβGal, 0,08 μg pGL2Gal4DBD and 0,02 μg p[…] was transfected per well using FuGene transfection reagent according to the manufacturers instructions (Roche). Cells were allowed to express protein for 48 h followed by addition of compound.
(§3) Plasmids: Human PPAR α and γ was obtained by PCR amplification using cDNA synthesized by reverse transcription of mRNA from liver and adipose tissue respectively. Amplified cDNAs were cloned into pCR2.1 and sequenced. The ligand binding domain (LBD) of each PPAR isoform was generated by PCR(PPARα: aa 167-C-terminus; PPARγ: aa 165-C-terminus) and fused to the DNA binding domain (DBD) of the yeast transcription factor GAL4 by subcloning fragments in frame into the vector pM1 generating the plasmids pM1αLBD and pM1γLBD. Ensuing fusions were verified by sequencing.
(§4) Luciferase assay: Medium including test compound was aspirated and 100 μl PBS incl. 1 mM Mg++ and Ca++ was added to each well. The luciferase assay was performed using the LucLite kit according to the manufacturers instructions (Packard Instruments). Light emission was quantified by counting SPC mode on a Packard Instruments top-counter. To measure β-galactosidase activity 25 μl supernatant from each transfection lysate was transferred to a new microplate. β-galactosidase assays were performed in the microwell plates using a kit from Promega and read in a microplate reader. The β-galactosidase data were used to normalize (transfection efficiency, cell growth etc.) the luciferase data.
(§5) Compounds: All compounds were dissolved in DMSO and diluted 1:1000 upon addition to the cells. Compounds were tested in quadruple in five concentrations ranging form 0.01 to 30 μM. Cells were treated with compound for 24 h followed by luciferase assay. Each compound was tested in three separate experiments. EC50 values were calculated via non-linear regression using GraphPad PRISM 3.02 (GraphPad Software, San Diego, Calif.). The results were expressed as means.
(§6) Compounds were tested in at least three separate experiments in five concentrations ranging from 0.01 to 30 μM.

human PPAR γ = biological target: T2, human PPAR γ (Homo sapiens, UniProt P37231); experiment: In vitro PPAR gamma transactivation assay (GAL4-DBD-PPAR-LBD luciferase reporter in HEK293 cells); format: cell-based; details: for EC50: HEK293 cells, 24 h with compound, five concentrations 0.01 to 30 μM, means of at least three experiments, read-out: In vitro activation PPAR γ EC50; for In vitro activation PPAR γ % max: fold activation relative to maximum activation obtained with rosiglitazone (approx. […] fold corresponded to 100%)
T2 construct: PPARα: aa 167-C-terminus; PPARγ: aa 165-C-terminus; expressed in transfected cells; host or cells: HEK293
T2 sequence (P37231 165-477 isoform P37231-2): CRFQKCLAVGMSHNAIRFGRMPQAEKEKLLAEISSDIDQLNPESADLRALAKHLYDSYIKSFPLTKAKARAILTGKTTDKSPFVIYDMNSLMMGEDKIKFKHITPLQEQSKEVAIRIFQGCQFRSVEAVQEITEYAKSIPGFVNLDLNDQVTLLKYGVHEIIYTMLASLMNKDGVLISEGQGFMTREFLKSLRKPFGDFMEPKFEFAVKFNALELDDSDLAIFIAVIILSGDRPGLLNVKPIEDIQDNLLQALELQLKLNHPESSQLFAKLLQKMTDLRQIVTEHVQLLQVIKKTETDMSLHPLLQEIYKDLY
Excerpt: as §1, §2, §3, §4, §5, §6

Compound	EC50 (human PPAR α) [nM]	In vitro activation PPAR α % max (human PPAR α) [%]	EC50 (human PPAR γ) [nM]	In vitro activation PPAR γ % max (human PPAR γ) [%]	Maximum activation PPAR α (fold activation) (human PPAR α; reference maximum, corresponded to 100%)
CCO[C@@H](Cc1ccc(OC/C=C(\C)C#Cc2cc(Cl)cc(Cl)c2)cc1)C(=O)O [Example 8, (E)-(S)-2-ethoxy-3-[4-(3-methyl-5-(3,5-dichloro-phenyl)-pent-2-en-4-ynyloxy)-phenyl]-propionic acid]	60	139	310	126	
CCO[C@@H](Cc1ccc(OC/C=C/C#Cc2cc(Cl)cc(Cl)c2)cc1)C(=O)O [Example 20, (E)-(S)-2-Ethoxy-3-[4-(5-(3,5-dichloro-phenyl)-pent-2-en-4-ynyloxy)-phenyl]-propionic acid]	40	154	1420	112	
CCO[C@@H](Cc1ccc(OC/C=C(\C)C#Cc2cccc(C(F)(F)F)c2)cc1)C(=O)O [Example 12, (E)-(S)-2-ethoxy-3-[4-(3-methyl-5-(3-trifluoromethyl-phenyl)-pent-2-en-4-ynyloxy)-phenyl]-propionic acid]	50	195	340	105	

Continued, values first:

EC50 (human PPAR α) [nM]	In vitro activation PPAR α % max (human PPAR α) [%]	EC50 (human PPAR γ) [nM]	In vitro activation PPAR γ % max (human PPAR γ) [%]	Maximum activation PPAR α (fold activation) (human PPAR α; reference maximum, corresponded to 100%)	Compound
160	181	2670	91		CCOC(Cc1ccc(OCC=C(C)C#Cc2cccc3ccccc23)cc1)C(=O)O (stereo in doubt) [Example 18, (Z)-(S)-2-ethoxy-3-[4-(3-methyl-5-(1-naphthyl)-pent-2-en-4-ynyloxy)-phenyl]-propionic acid]
				approx. 20 fold	Cc1cccc(Nc2cc(Cl)nc(SCC(=O)O)n2)c1C [Wy14643, reference compound]

— patent US7202213B2 (Novo Nordisk A/S, priority 2000, dated 2007)
